Assay results: US11026426B2, “Oxadiazole and phenol derivatives as antibacterial and/or herbicidal agents” (NORTHERN ILLINOIS RESEARCH FOUNDATION, priority 2017, dated 2021)
Like-named read-outs stand apart in the source and are kept apart here.

Columns and labels:
Type in all cases: cell-based
Corynebacterium xerosis = assay: Antibacterial assay zone of inhibition Cx
Mycobacterium smegmatis = assay: Antibacterial assay zone of inhibition Ms
Bacillus cereus = assay: Antibacterial assay zone of inhibition Bc
[1] = test system: Burkholderia thailandensis
Escherichia coli = assay: Antibacterial assay zone of inhibition Ec
[2] = test system: Corynebacterium pseudodiphtheriae; assay: Antibacterial assay zone of inhibition Cp
Klebsiella pneumonia = assay: Antibacterial assay zone of inhibition Kp
Micrococcus luteus = assay: Antibacterial assay zone of inhibition Ml
Pseudomonas aeruginosa = assay: Antibacterial assay zone of inhibition Pa

| SMILES | Antibacterial Cx zone of inhibition (Corynebacterium xerosis; 0.1 mM) [millimeters] | Antibacterial Cx zone of inhibition (Corynebacterium xerosis; 0.5 mM) [millimeters] | Antibacterial Cx zone of inhibition (Corynebacterium xerosis; 1 mM) [millimeters] | Antibacterial Ms zone of inhibition (Mycobacterium smegmatis; 0.1 mM) [millimeters] | Antibacterial Ms zone of inhibition (Mycobacterium smegmatis; 0.5 mM) [millimeters] | Antibacterial Ms zone of inhibition (Mycobacterium smegmatis; 1 mM) [millimeters] | Antibacterial Bc zone of inhibition (Bacillus cereus; 0.1 mM) [millimeters] | Antibacterial Bc zone of inhibition (Bacillus cereus; 0.5 mM) [millimeters] | Antibacterial Bc zone of inhibition (Bacillus cereus; 1 mM) [millimeters] | Antibacterial Ec zone of inhibition (Escherichia coli; 0.1 mM) [millimeters] | Antibacterial Ec zone of inhibition (Escherichia coli; 0.5 mM) [millimeters] | Antibacterial Ec zone of inhibition (Escherichia coli; 1 mM) [millimeters] | Antibacterial Cp zone of inhibition ([2]; 0.1 mM) [millimeters] | Antibacterial Cp zone of inhibition ([2]; 0.5 mM) [millimeters] | Antibacterial Cp zone of inhibition ([2]; 1 mM) [millimeters] | Antibacterial Kp zone of inhibition (Klebsiella pneumonia; 0.1 mM) [millimeters] | Antibacterial Kp zone of inhibition (Klebsiella pneumonia; 0.5 mM) [millimeters] | Antibacterial Kp zone of inhibition (Klebsiella pneumonia; 1 mM) [millimeters] | Antibacterial Ml zone of inhibition (Micrococcus luteus; 0.1 mM) [millimeters] | Antibacterial Ml zone of inhibition (Micrococcus luteus; 0.5 mM) [millimeters] | other results |
| --- | --- | --- | --- | --- | --- | --- | --- | --- | --- | --- | --- | --- | --- | --- | --- | --- | --- | --- | --- | --- | --- |
| Clc1ccc(OCc2nnc(-c3nc4ccccc4s3)o2)cc1 [HGN-826] | 0 | 0 | 0 | 0 | 13 | 20 | 0 | 0 | 12 | 0 | 0 | 0 | 0 | 0 | 0 | 0 | 0 | 0 | 0 | 0 | Antibacterial Bt zone of inhibition ([1]; 0.1 mM): 0 millimeters; Antibacterial Bt zone of inhibition ([1]; 0.5 mM): 0 millimeters; Antibacterial Bt zone of inhibition ([1]; 1 mM): 0 millimeters; Antibacterial Ml zone of inhibition (Micrococcus luteus; 1 mM): 0 millimeters; Antibacterial Pa zone of inhibition (Pseudomonas aeruginosa; 0.1 mM): 0 millimeters; Antibacterial Pa zone of inhibition (Pseudomonas aeruginosa; 0.5 mM): 0 millimeters; Antibacterial Pa zone of inhibition (Pseudomonas aeruginosa; 1 mM): 0 millimeters |
| Clc1ccc(OCc2nnc(-c3nc4ccccc4s3)o2)cc1Cl [HGN-834] | 0 | 0 | 0 | 0 | 0 | 0 | 0 | 11 | 18 | 0 | 0 | 0 | 0 | 0 | 0 | 0 | 0 | 0 | 0 | 0 | Antibacterial Bt zone of inhibition ([1]; 0.1 mM): 0 millimeters; Antibacterial Bt zone of inhibition ([1]; 0.5 mM): 0 millimeters; Antibacterial Bt zone of inhibition ([1]; 1 mM): 0 millimeters; Antibacterial Ml zone of inhibition (Micrococcus luteus; 1 mM): 0 millimeters; Antibacterial Pa zone of inhibition (Pseudomonas aeruginosa; 0.1 mM): 0 millimeters; Antibacterial Pa zone of inhibition (Pseudomonas aeruginosa; 0.5 mM): 0 millimeters; Antibacterial Pa zone of inhibition (Pseudomonas aeruginosa; 1 mM): 0 millimeters |
| Cc1cccc(OCc2nnc(-c3nc4ccccc4s3)o2)c1 [HGN-837] | 0 | 11 | 17 | 0 | 0 | 0 | 0 | 13 | 19 | 0 | 10 | 17 | 0 | 0 | 0 | 0 | 0 | 0 | 0 | 6 | Antibacterial Bt zone of inhibition [1]: 0 13 19.5 millimeters; Antibacterial Ml zone of inhibition (Micrococcus luteus; 1 mM): 10 millimeters; Antibacterial Pa zone of inhibition (Pseudomonas aeruginosa; 0.1 mM): 0 millimeters; Antibacterial Pa zone of inhibition (Pseudomonas aeruginosa; 0.5 mM): 0 millimeters; Antibacterial Pa zone of inhibition (Pseudomonas aeruginosa; 1 mM): 0 millimeters |
| c1ccc(OCc2nnc(-c3nc4ccccc4s3)o2)cc1 [HGN-840] | 0 | 0 | 0 | 0 | 0 | 0 | 0 | 0 | 14.5 | 0 | 0 | 0 | 0 | 12 | 19 | 0 | 0 | 16.5 | 0 | 0 | Antibacterial Bt zone of inhibition [1]: 0 14 17.5 millimeters; Antibacterial Ml zone of inhibition (Micrococcus luteus; 1 mM): 0 millimeters; Antibacterial Pa zone of inhibition (Pseudomonas aeruginosa; 0.1 mM): 0 millimeters; Antibacterial Pa zone of inhibition (Pseudomonas aeruginosa; 0.5 mM): 0 millimeters; Antibacterial Pa zone of inhibition (Pseudomonas aeruginosa; 1 mM): 0 millimeters |
